This is an account of results in patent publication US20200187507A1, “INOCULANTS INCLUDING PLANT GROWTH PRODUCING RHIZOBACTERIA (PGPR) AND INSECTIDES FOR PROMOTING PLANT GROWTH AND HEALTH” (Auburn University, priority 2018, published 2020).

One test deals with Bacillus pumilus AP 7. As to the kind of experiment: Bacterial strains and insecticide compatibility (mixed in tubes, CFU counts). It counts as cell-based. Particulars: Example 1; mixed for 2 wk at label rates. The method, then: The strains of Blend 20, each with a minimum concentration of 1×10^8 CFU per ml were individually evaluated for their compatibility with commonly used liquid insecticides. The strains were evaluated individually to make recovery of each bacterium apparent, as the colony morphologies are similar. Freshly prepared bacteria stock solutions were evaluated for their ability to survive being ‘tank’ mixed with insecticides in 50 ml centrifuge tubes with three different insecticides mixed together for 1 h, 24 h, and 1 wk, and 2 wk at 25 s ° C. under ambient light. The bacteria were evaluated for compatibility with insecticides which included three chemical groups: neonicotinoids, phenylpyrazoles, and pyrethroids. The pesticides evaluated were bifenthrin (Talstar Pro, FMC Corporation, Philadelphia, Pa.), fipronil (Termidor SC, BASF Corporation, Florham Park, N.J.), imidacloprid (Merit 2F, Bayer, Research Triangle Park, N.C.). […] Bifenthrin and fipronil were evaluated at high and low label rates. […] Bacterial populations (number of colony forming units [CFU]) in the suspensions were determined by plating 50 μl of the 10^−5 serial dilutions onto three TSA plates, incubating plates for 24 h and then counting the number of bacterial colonies on each plate.
Bacterial strains from multiple genera with known populations (minimum of 1×10^8 colony forming units (CFU)/ml (0.03 oz)) were evaluated individually for their compatibility with commonly turfgrass insecticides. […]
The strains that comprise Blend 20, each with aminimum concentration of 1×10^8 CFU per ml, were individually evaluated for their compatibility with commonly used liquid neonicotinoid insecticides. The strains within the blend were evaluated individually to make recovery of each bacterium apparent, as the colony morphologies are similar. Freshly prepared bacteria stock solutions were evaluated for survival when mixed with three different insecticides mixed in separate 50 mL centrifuge tubes for 1 and 24 h, and 1 and 2 wk at 25° C. under ambient light. […]

The test system of the next test is Bacillus pumilus AP 18. The test is described as above. It counts as cell-based. Particulars: Example 1; mixed for 2 wk at label rates. The method, then: (§1) The strains of Blend 20, each with a minimum concentration of 1×10^8 CFU per ml were individually evaluated for their compatibility with commonly used liquid insecticides. The strains were evaluated individually to make recovery of each bacterium apparent, as the colony morphologies are similar. Freshly prepared bacteria stock solutions were evaluated for their ability to survive being ‘tank’ mixed with insecticides in 50 ml centrifuge tubes with three different insecticides mixed together for 1 h, 24 h, and 1 wk, and 2 wk at 25 s ° C. under ambient light. The bacteria were evaluated for compatibility with insecticides which included three chemical groups: neonicotinoids, phenylpyrazoles, and pyrethroids. The pesticides evaluated were bifenthrin (Talstar Pro, FMC Corporation, Philadelphia, Pa.), fipronil (Termidor SC, BASF Corporation, Florham Park, N.J.), imidacloprid (Merit 2F, Bayer, Research Triangle Park, N.C.). While Termidor SC is not used on golf courses, it was selected for convenience because the active ingredient (Fipronil) is formulated as a granular product and widely used for mole cricket management (24). Bacteria and pesticide solutions were prepared based on the label recommendations for volume of area covered (bifenthrin, imidacloprid) or amount of active ingredient per volume needed (fipronil). Bifenthrin and fipronil were evaluated at high and low label rates. Bifenthrin was mixed at a rate of 29.6 and 14.8 ml per 92.9 m^2 (7.9% active ingredient, 302 g per 3,785 ml). Imidacloprid was mixed a rate of 17 ml per 92.9 m^2 (21.4%, 907 g per 3,785 ml). Fipronil was prepared at 47.3 (0.125% dilution) and 23.65 ml (0.06% dilution) per 3,785 ml (9.1% active ingredient, 363 g per 3,785 ml). After the allotted time, the centrifuge tubes were vigorously shaken to evenly distribute bacterial cells before serial 10-fold dilutions. Serial dilutions were made of each bacterial suspension into sterile water blanks to a final dilution of 10^−5. Bacterial populations (number of colony forming units [CFU]) in the suspensions were determined by plating 50 μl of the 10^−5 serial dilutions onto three TSA plates, incubating plates for 24 h and then counting the number of bacterial colonies on each plate.
(§2) The strains that comprise Blend 20, each with aminimum concentration of 1×10^8 CFU per ml, were individually evaluated for their compatibility with commonly used liquid neonicotinoid insecticides. The strains within the blend were evaluated individually to make recovery of each bacterium apparent, as the colony morphologies are similar. Freshly prepared bacteria stock solutions were evaluated for survival when mixed with three different insecticides mixed in separate 50 mL centrifuge tubes for 1 and 24 h, and 1 and 2 wk at 25° C. under ambient light. Bacteria and pesticide solutions were prepared based on the label recommendations for volume of area covered. The pesticides evaluated were imidacloprid (Ferti-lome® Tree and Shrub Systemic Insect Drench, 1.47% active ingredient, Voluntary Purchasing Groups, Inc., Bonham, Tex., USA), imidacloprid (Merit® 2F, 21.4% active ingredient, Bayer Environmental Sciences, Research Triangle Park, N.C., USA), and imidacloprid and clothianidin (Bayer Advanced 12 Month Tree and Shrub Protect and Feed II®, 0.74% imidacloprid and 0.37% clothianidin active ingredient, Bayer Environmental Sciences). The Ferti-lome® product was mixed at a rate of 89 mL of product per 3785 mL. Merit® 2F was mixed at a rate of 17 mL of product per 92.9 m^2. Bayer Advanced Tree and Shrub Protect and Feed II® was mixed at a rate of 89 mL of product per 3785 mL.
(§3) After the allotted time, the centrifuge tubes were vigorously shaken to evenly distribute bacterial cells before completing five serial 10-fold dilutions. Serial dilutions were made of each bacterial suspension into sterile water blanks to a final dilution of 10^−5. […]

Test [1] concerns Bacillus sphaericus AP 282. The test is described as above. Particulars: Example 1; mixed for 2 wk at label rates. In kind it is cell-based. The procedure:
as §1, §2, §3

The test system of the next test is Pseudomonas fluorescens. Particulars: imidacloprid as cotton seed treatment; cited from earlier work.
Another test deals with tawny mole crickets. The test is described as follows: Field plots: tawny mole cricket damage ratings (Cobb and Mack). The conditions noted are these: scale 0-9. In kind it is in vivo, Neoscapteriscus vicinus Scudder. The method, then: On 26 Mar. 2017 field plots were established at the Auburn University Turfgrass Research Unit, Auburn, Ala. over hybrid and common bermudagrass tawny mole cricket infested areas in a Marvyn loamy sand. Plots were 3 m×2 m with at least 2 m separating plots. Field plots were assessed for mole cricket damage based on the rating system of Cobb and Mack (26). A 1 m×1 m frame divided into a grid with 9 subsections was used to score the plots on a scale of 0-9, where 0 indicates no damage and 9 indicates activity in each section. After the initial assessment, plots were assigned to a treatment group based on damage ratings. […] Damage assessments were taken from seven locations (center, top left, top right, bottom left, bottom right, middle left, and middle right), with one location sampled during each damage assessment period for all treatments. The experiment evaluated four treatments, PGPR-treated (Blend 20), bifenthrin-treated, PGPR+bifenthrin-treated, and non-treated control. On 27 Mar. 2017 (Day 0) and 23 April (Day 27) plots were treated with a backpack sprayer. Bacteria-treated plots received 3 L (500 ml/m^2) freshly-prepared aqueous bacterial suspension of 1×10^7 CFU per ml. Bifenthrin-treated plots were treated at a rate of 29.6 ml per 92.9 m^2. The sprayer applied 244 ml of this mixture per plot. PGPR+ bifenthrin plots were treated with the 3 L of bacteria and 244 ml of bifenthrin mixed together in the same tank. The non-treated plots were treated with 3 L of distilled water coincident with treatment of the other plots. After treating, the plots were hand watered with 76.2 L of water (1.27 cm) to move the treatments into the root zone. The experiment was replicated six times for each treatment.
Top growth (fresh and dry mass) in the cylinder trials were analyzed separately using repeated measures of multivariate analysis of covariance (MANCOVA) due to trial being a significant factor (P<0.05, JMP Version 13. SAS Institute Inc., Cary, N.C., 1989-2007). Root fresh and dry mass, and length were analyzed using orthogonal contrasts (P<0.05, JMP Version 13. SAS Institute Inc., Cary, N.C., 1989-2007). The number of mole crickets recovered and mole cricket weights from each treatment were used as covariants. Mole cricket weights were analyzed using analysis of variance (ANOVA), Student's t-test. The number of mole crickets recovered and mole cricket weights within treatments were not significant in either PVC arena trial. For the field trial, LSMeans, Student's t-Test (LSD, P<0.05) was used to compare each sampling period's mole cricket damage ratings.

As to `O=[N+]([O-])NC1=NCCN1Cc1ccc(Cl)nc1` [Imidacloprid, imidacloprid], the “bacterial populations when mixed with insecticide” value (“bacterial populations when mixed” below) (with Bacillus pumilus AP 7; with Bacillus pumilus AP 18; in test [1]) was “not negatively impacted” in each case. Moreover, the “Pseudomonas fluorescens populations when mixed with pesticide or extract” value (from here on “Pseudomonas fluorescens populations”) in the test on Pseudomonas fluorescens is listed as “negatively impacted”.

As for `N#Cc1nn(-c2c(Cl)cc(C(F)(F)F)cc2Cl)c(N)c1[S+]([O-])C(F)(F)F` (stereo not shown) [Fipronil, fipronil], the “bacterial populations when mixed” value (in the test on Bacillus pumilus AP 7; in the test on Bacillus pumilus AP 18; in test [1]) was “not negatively impacted” throughout.

Consider `CCCC1COC(Cn2cncn2)(c2ccc(Cl)cc2Cl)O1` (stereo not shown) [propiconazole], for which the “Pseudomonas fluorescens populations” value in the test with Pseudomonas fluorescens is recorded as “negatively impacted”.

As for `O=C1C2CC=CCC2C(=O)N1SC(Cl)(Cl)Cl` (stereo not shown) [captan], the “Pseudomonas fluorescens populations” value in the test with Pseudomonas fluorescens is on record as “negatively impacted”.

Take `CCOP(=S)(OCC)Oc1nc(Cl)c(Cl)cc1Cl` [chlorpyriphos]: the “Pseudomonas fluorescens populations” value in the test on Pseudomonas fluorescens was “remained stable”.

Regarding `CC[C@H](C)[C@H]1O[C@]2(C=C[C@@H]1C)C[C@@H]1C[C@@H](C/C=C(\C)[C@@H](O[C@H]3C[C@H](OC)[C@@H](O[C@H]4C[C@H](OC)[C@@H](O)[C@H](C)O4)[C@H](C)O3)[C@@H](C)/C=C/C=C3\CO[C@@H]4[C@H](O)C(C)=C[C@@H](C(=O)O1)[C@]34O)O2` [avermectin], in the test with Pseudomonas fluorescens, the “Pseudomonas fluorescens populations” value is on record as “remained stable”.

For the compound `COC(=O)N(C(=O)N1CO[C@@]2(C(=O)OC)Cc3cc(Cl)ccc3C2=N1)c1ccc(OC(F)(F)F)cc1` [indoxacarb], the “Pseudomonas fluorescens populations” value with Pseudomonas fluorescens is on record as “not”.

On to `Cc1c(COC(=O)[C@@H]2[C@H](/C=C(\Cl)C(F)(F)F)C2(C)C)cccc1-c1ccccc1` (racemic) [Bifenthrin, bifenthrin], for which the “bacterial populations when mixed” value (in the test with Bacillus pumilus AP 7; in the test on Bacillus pumilus AP 18; in test [1]) was “not negatively impacted” in each case. Further, the “Mean Mole Cricket Damage Rating” value in the test with tawny mole crickets (0 days after treatment) is 7.52a; in the test on tawny mole crickets (14 days after treatment), 7.95a; in the test on tawny mole crickets (21 days after treatment) it was 7.14a; in the test with tawny mole crickets (28 days after treatment (1 after re-treatment)), 1.71b; in the test with tawny mole crickets (33 days after treatment (5 after re-treatment)), 5.10ab; in the test on tawny mole crickets (42 days after treatment (15 after re-treatment)) it was 3.90ab. The “Mean Mole Cricket Damage Rating” value amounted to 1.48b with tawny mole crickets (46 days after treatment (19 after re-treatment)), 1.86b with tawny mole crickets (50 days after treatment (23 after re-treatment)) and 4.43b in the test on tawny mole crickets (56 days after treatment (29 after re-treatment)).

`CN(C)C(=S)SSC(=S)N(C)C` [thiram]: the “Pseudomonas fluorescens populations” value with Pseudomonas fluorescens is recorded as “not negatively impacted”.

Regarding `COC(=O)Nc1nc2ccccc2[nH]1` [carbendazim], the “Pseudomonas fluorescens populations” value in the test on Pseudomonas fluorescens was “not negatively impacted”.

Turning to `CNC(=O)Oc1cccc2c1OC(C)(C)C2` [carbofuran], the “Pseudomonas fluorescens populations” value in the test with Pseudomonas fluorescens is recorded as “remained stable”.

As for mancozeb, the “Pseudomonas fluorescens populations” value in the test on Pseudomonas fluorescens is reported as “negatively impacted”.
